Measurements as given in patent US20200108070A2, “INHIBITORS OF FIBROBLAST GROWTH FACTOR RECEPTOR AND USE THEREOF” (Nanjing TransThera Biosciences Co. Ltd., priority 2016, published 2020).

Columns and labels:
FGFR1 = FGFR1 (Homo sapiens, UniProt P11362); assay: Enzymatic activity test (LabChip EZ Reader II / Caliper), FGFR1; format: biochemical; conditions: FGFR1(h), FAM-labelled polypeptide substrate and ATP, 30 min incubation; read-out: Inhibitory activity against FGFR (IC50) FGFR1
Method: (§1) Experimental Example 1: Enzymatic Activity Test of the Compounds of the Present Invention
(§2) Test substance: The compounds of the present invention, the structures of which are shown above.
(§3) Test Instrument: The LabChip EZ Reader II drug screening platform.
(§4) 1. Preparation for compound plate a) 96-well plates, 10 dose groups, 3-fold serial dilutions, added DMSO to each well, maximal concentration of 500 μM. b) 384-well plates, diluted with 1× kinase buffer (50 mM HEPES, pH 7.5; 0.0015% Brij-35; 2 mM DTT), each well containing 5× compound dissolved in 5 μL of 10% DMSO. The negative control well was 5 μL of 1× kinase buffer containing 10% DMSO. 2. Experimental procedure
(§5) […] in 1× kinase buffer were reacted with 2.5× enzyme solution at room temperature for 10 min, and then the FAM-labelled polypeptide substrate and ATP were added to initiate reaction. After incubation for 30 min, 25 μL of terminal solution (100 mM HEPES, pH 7.5; 0.015% Brij-35; 0.2% Coating Reagent #3; 50 mM EDTA) was added to terminate the reaction, and the final data were read by Caliper.

FGFR4 = FGFR4 (Homo sapiens, UniProt P22455); assay: Enzymatic activity test (LabChip EZ Reader II / Caliper), FGFR4; format: biochemical; conditions: FGFR4(h), FAM-labelled polypeptide substrate and ATP, 30 min incubation; read-out: Inhibitory activity against FGFR (IC50) FGFR4
FGFR4, sequence (P22455 22-802): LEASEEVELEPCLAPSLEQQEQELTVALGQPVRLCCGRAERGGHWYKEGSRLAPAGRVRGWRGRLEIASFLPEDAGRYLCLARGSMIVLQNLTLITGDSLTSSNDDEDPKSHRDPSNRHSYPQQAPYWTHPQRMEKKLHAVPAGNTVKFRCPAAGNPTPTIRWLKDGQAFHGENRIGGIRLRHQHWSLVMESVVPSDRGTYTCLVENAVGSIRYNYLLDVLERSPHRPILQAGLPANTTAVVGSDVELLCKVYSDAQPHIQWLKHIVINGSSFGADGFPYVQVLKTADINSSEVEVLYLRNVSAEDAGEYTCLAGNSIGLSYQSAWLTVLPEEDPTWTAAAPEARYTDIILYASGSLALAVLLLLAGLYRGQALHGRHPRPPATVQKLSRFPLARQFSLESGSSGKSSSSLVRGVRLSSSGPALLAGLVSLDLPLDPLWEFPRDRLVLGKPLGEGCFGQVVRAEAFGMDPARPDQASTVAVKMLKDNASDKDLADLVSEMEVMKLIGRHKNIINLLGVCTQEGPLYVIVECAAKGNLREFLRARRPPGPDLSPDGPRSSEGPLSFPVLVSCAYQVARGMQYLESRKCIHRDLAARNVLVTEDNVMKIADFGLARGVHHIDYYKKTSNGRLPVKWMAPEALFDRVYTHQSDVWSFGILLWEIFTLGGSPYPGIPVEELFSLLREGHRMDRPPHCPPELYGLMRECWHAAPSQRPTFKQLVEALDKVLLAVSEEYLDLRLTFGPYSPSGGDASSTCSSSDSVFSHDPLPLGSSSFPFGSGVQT
Method: as §1, §2, §3, §4, §5

RT112/84 = assay: Cellular activity test (Cell titer-Glo), RT112/84; format: cell-based; conditions: Homo sapiens, RT112/84, bladder cancer cell with abnormal FGFR, 72 h, read-out: Inhibitory activity against cells (IC50) RT112/84
Excerpt: (§6) Experimental Example 2: Celluar Activity Test of the Compounds of the Present Invention
(§7) Hep3B is a cell with abnormal FGFR in hepatocellular carcinoma RT112/84 is a cell with abnormal FGFR in bladder cancer DMS114 is a cell with abnormal FGFR in small cell lung cancer AN3CA is a cell with abnormal FGFR in endometrial cancer SNU-16 is a cell with abnormal FGFR in gastric cancer
as §2
(§8) Test instrument: The Espire multi-function microplate reader.
(§9) Each cell line was seeded into a 96-well plate, and adherent cultured overnight. Then, the compounds at different concentrations (12 dose groups, 3× DMSO serial dilutions) were added to a final concentration of 0.17-30000 nM, with the final content of DMSO of 5‰. The negative control well was medium containing 5‰ DMSO. After incubation at 37° C., 5% CO2, 95% humidity for 72 h, the cultures would be test. 30 μL of Cell titer-Glo reagent was added to each well and incubated for 30 min at room temperature. The final data were read by Espire microplate reader.

AN3CA = assay: Cellular activity test (Cell titer-Glo), AN3CA; format: cell-based; conditions: Homo sapiens, AN3-CA, endometrial cancer cell with abnormal FGFR, 72 h, read-out: Inhibitory activity against cells (IC50) AN3CA
Excerpt: as §6, §7, §2, §8, §9

DMS114 = assay: Cellular activity test (Cell titer-Glo), DMS114; format: cell-based; conditions: Homo sapiens, DMS-114, DMS114, small cell lung cancer cell with abnormal FGFR, 72 h, read-out: Inhibitory activity against cells (IC50) DMS114
Excerpt: as §6, §7, §2, §8, §9

FGFR3 = FGFR3 (Homo sapiens, UniProt P22607); assay: Enzymatic activity test (LabChip EZ Reader II / Caliper), FGFR3; format: biochemical; conditions: FGFR3(h), FAM-labelled polypeptide substrate and ATP, 30 min incubation; read-out: Inhibitory activity against FGFR (IC50) FGFR3
FGFR3, sequence (P22607 23-806): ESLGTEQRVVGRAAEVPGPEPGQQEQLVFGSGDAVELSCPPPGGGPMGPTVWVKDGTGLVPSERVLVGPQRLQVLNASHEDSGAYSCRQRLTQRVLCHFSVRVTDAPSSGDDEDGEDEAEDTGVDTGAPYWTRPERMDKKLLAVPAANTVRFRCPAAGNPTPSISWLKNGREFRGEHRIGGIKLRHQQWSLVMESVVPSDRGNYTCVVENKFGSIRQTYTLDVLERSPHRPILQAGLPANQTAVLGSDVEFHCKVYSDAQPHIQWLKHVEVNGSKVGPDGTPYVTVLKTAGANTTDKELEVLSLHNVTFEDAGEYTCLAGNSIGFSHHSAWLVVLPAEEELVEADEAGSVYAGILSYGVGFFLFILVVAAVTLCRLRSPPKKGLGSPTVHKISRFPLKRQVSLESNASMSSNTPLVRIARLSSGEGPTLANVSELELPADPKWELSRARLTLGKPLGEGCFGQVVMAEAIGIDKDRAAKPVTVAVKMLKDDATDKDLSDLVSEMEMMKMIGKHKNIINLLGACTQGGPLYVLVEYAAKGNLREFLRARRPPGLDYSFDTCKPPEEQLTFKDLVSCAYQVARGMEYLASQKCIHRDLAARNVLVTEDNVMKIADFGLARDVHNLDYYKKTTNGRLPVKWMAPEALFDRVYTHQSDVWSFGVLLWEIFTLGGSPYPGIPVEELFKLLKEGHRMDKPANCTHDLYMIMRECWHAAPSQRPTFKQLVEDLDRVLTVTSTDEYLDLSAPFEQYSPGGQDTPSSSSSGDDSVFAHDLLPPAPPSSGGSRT
Method: as §1, §2, §3, §4, §5

Hep3B = assay: Cellular activity test (Cell titer-Glo), Hep3B; format: cell-based; conditions: Homo sapiens, hepatocellular carcinoma cell with abnormal FGFR, 72 h, read-out: Inhibitory activity against cells (IC50) Hep3B
Excerpt: as §6, §7, §2, §8, §9

FGFR2 = FGFR2 (Homo sapiens, UniProt P21802); assay: Enzymatic activity test (LabChip EZ Reader II / Caliper), FGFR2; format: biochemical; conditions: FGFR2(h), FAM-labelled polypeptide substrate and ATP, 30 min incubation; read-out: Inhibitory activity against FGFR (IC50) FGFR2
FGFR2, sequence (P21802 22-821): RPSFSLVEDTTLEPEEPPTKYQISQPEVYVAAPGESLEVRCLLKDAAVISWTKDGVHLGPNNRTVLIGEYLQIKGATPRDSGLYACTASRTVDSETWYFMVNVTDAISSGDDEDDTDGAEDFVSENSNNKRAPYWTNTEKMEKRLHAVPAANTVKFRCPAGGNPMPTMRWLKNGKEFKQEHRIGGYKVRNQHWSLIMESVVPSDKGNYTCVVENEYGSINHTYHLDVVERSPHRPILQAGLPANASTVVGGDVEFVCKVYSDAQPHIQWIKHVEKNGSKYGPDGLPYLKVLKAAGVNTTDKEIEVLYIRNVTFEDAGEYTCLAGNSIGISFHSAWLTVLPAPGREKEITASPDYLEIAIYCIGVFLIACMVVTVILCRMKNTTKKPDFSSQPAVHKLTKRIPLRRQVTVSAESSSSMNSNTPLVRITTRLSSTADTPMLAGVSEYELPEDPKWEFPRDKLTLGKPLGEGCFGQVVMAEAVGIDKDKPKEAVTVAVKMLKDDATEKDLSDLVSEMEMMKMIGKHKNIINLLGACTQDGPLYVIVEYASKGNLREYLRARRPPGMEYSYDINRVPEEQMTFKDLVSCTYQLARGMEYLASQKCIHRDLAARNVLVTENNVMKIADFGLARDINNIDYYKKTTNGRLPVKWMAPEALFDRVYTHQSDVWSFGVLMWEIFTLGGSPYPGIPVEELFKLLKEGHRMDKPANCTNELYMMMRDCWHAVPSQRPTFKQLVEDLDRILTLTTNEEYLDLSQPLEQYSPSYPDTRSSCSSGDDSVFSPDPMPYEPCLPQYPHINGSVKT
Method: as §1, §2, §3, §4, §5

FGFR1, sequence (P11362 22-822): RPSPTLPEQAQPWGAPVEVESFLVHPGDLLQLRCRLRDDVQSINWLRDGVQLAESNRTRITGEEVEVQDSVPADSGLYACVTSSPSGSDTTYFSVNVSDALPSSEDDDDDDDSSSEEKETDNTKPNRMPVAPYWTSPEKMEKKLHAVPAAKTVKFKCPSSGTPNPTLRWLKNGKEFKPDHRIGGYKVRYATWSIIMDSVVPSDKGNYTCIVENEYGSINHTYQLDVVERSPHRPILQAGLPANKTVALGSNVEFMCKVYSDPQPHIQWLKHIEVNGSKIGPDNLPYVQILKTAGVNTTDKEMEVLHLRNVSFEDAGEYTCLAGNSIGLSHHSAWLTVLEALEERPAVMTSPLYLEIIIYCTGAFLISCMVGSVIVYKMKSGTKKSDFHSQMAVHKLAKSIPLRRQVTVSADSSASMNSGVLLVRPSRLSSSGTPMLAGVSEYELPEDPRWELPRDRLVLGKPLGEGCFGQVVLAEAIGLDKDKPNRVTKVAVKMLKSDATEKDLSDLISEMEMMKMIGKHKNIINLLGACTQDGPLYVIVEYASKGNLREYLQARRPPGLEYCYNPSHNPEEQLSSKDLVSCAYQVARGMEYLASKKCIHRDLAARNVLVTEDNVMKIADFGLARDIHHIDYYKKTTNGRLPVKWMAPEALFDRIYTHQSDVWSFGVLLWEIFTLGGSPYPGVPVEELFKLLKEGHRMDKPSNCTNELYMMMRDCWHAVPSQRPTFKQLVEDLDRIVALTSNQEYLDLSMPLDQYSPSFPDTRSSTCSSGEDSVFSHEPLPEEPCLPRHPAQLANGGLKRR

## C=CC(=O)N1C[C@@H](Nc2ncc3cc(-c4c(Cl)c(OC)cc(OC)c4Cl)ccc3n2)C2(CC2)C1 (stereo in doubt) [Compound 66]
FGFR1
  IC50: 0.015 µM
FGFR4
  IC50: 0.318 µM

## C=CC(=O)N1C[C@@H](Nc2ncc3cc(-c4c(Cl)c(OC)cc(OC)c4Cl)ccc3n2)C[C@H]1C(=O)N1CCCC1 [Compound 55, 1-((2S,4S)-4-((6-(2,6-dichloro-3,5-dimethoxyphenyl)quinazolin-2-yl)amino)-2-(pyrrolidin-1-carbonyl)pyrrolidin-1-yl)prop-2-en-1-one]
RT112/84
  IC50: 0.054 µM
AN3CA
  IC50: 0.066 µM
DMS114
  IC50: 0.021 µM

## C=CC(=O)N1CC[C@@H](Nc2ncc3cc(-c4c(Cl)c(OC)cc(OC)c4Cl)ccc3n2)C1 [Compound 6, (R)-1-(3-((6-(2,6-dichloro-3,5-dimethoxyphenyl)quinazolin-2-yl)amino)pyrrolidin-1-yl)prop-2-en-1-one]
FGFR1
  IC50: < 0.003 µM
FGFR3
  IC50: 0.018 µM
FGFR4
  IC50: 0.78 µM

## C=CC(=O)N1C[C@@H](Nc2ncc3cc(-c4c(Cl)c(OC)cc(OC)c4Cl)ccc3n2)C[C@H]1CC#N [Compound 27, 2-((2S,4S)-1-acryloyl-4-((6-(2,6-dichloro-3,5-dimethoxyphenyl)quinazolin-2-yl)amino)pyrrolidin-2-yl)acetonitrile]
RT112/84
  IC50: 0.127 µM
Hep3B
  IC50: 0.082 µM
DMS114
  IC50: 0.072 µM
FGFR1
  IC50: 0.018 µM
FGFR4
  IC50: 0.261 µM

## C=CC(=O)N1CC(Nc2ncc3cc(-c4c(Cl)c(OC)cc(OC)c4Cl)ccc3n2)C1 [Compound 9]
FGFR1
  IC50: < 0.003 µM
FGFR3
  IC50: 0.008 µM
FGFR4
  IC50: 0.301 µM

## C=CC(=O)N1C[C@H](O)[C@H](Nc2ncc3cc(-c4c(Cl)c(OC)cc(OC)c4Cl)ccc3n2)C1 [Compound 46]
FGFR2
  IC50: 0.0082 µM
FGFR1
  IC50: 0.0058 µM
FGFR3
  IC50: 0.022 µM

## C=CC(=O)N1CCC(Nc2ncc3cc(-c4c(Cl)c(OC)cc(OC)c4Cl)ccc3n2)C(C)C1 (stereo not shown) [Compound 61]
FGFR1
  IC50: 0.006 µM
FGFR4
  IC50: 0.268 µM

## CC#CC(=O)N1CCC(Nc2ncc3cc(-c4c(Cl)c(OC)cc(OC)c4Cl)ccc3n2)CC1 [Compound 63]
FGFR1
  IC50: < 0.003 µM
FGFR4
  IC50: 0.196 µM

## C=CC(=O)N1C[C@@H](Nc2ncc3cc(-c4c(Cl)c(OC)cc(OC)c4Cl)ccc3n2)C[C@H]1COC [Compound 53, 1-((2S,4S)-4-((6-(2,6-dichloro-3,5-dimethoxyphenyl)quinazolin-2-yl)amino)-2-(methoxymethyl)pyrrolidin-1-yl)prop-2-en-1-one]
RT112/84
  IC50: 0.097 µM
DMS114
  IC50: 0.082 µM

## C=CC(=O)N1C[C@@H](Nc2ncc3cc(-c4c(Cl)c(OC)cc(OC)c4Cl)ccc3n2)C[C@H]1C(=O)OCC [Compound 36, ethyl(2S,4S)-1-acryloyl-4-((6-(2,6-dichloro-3,5-dimethoxyphenyl)quinazolin-2-yl)amino)pyrrolidin-2-carboxylate]
Hep3B
  IC50: 0.0707 µM

## C=CC(=O)N1C[C@@H](Nc2ncc3cc(-c4c(Cl)c(OC)cc(OC)c4Cl)ccc3n2)C[C@H]1CNC(C)=O [Compound 32, N-(((2S,4S)-1-acryloyl-4-((6-(2,6-dichloro-3,5-dimethoxyphenyl)quinazolin-2-yl)amino)pyrrolidin-2-yl)methyl)acetamide]
RT112/84
  IC50: 0.078 µM
AN3CA
  IC50: 0.167 µM
Hep3B
  IC50: 0.147 µM
DMS114
  IC50: 0.048 µM

## C=CC(=O)N1CC(Nc2ncc3cc(-c4c(Cl)c(OC)cc(OC)c4Cl)ccc3n2)c2ccccc21 (stereo not shown) [Compound 67]
FGFR2
  IC50: 0.056 µM
FGFR1
  IC50: 0.008 µM
FGFR4
  IC50: 0.129 µM

## C=CC(=O)N1CCCC(Nc2ncc3cc(-c4c(Cl)c(OC)cc(OC)c4Cl)ccc3n2)C1 (stereo not shown) [Compound 1]
FGFR4
  IC50: 0.153 µM

## C=CC(=O)N1C[C@@H](Nc2ncc3cc(-c4c(Cl)c(OC)cc(OC)c4Cl)ccc3n2)C[C@H]1C(=O)N1CCC1 [Compound 35, 1-((2S,4S)-2-(azetidine-1-carbonyl)-4-((6-(2,6-dichloro-3,5-dimethoxyphenyl)quinazolin-2-yl)amino)pyrrolidin-1-yl)prop-2-en-1-one]
RT112/84
  IC50: 0.06 µM
AN3CA
  IC50: 0.112 µM
Hep3B
  IC50: 0.095 µM
DMS114
  IC50: 0.052 µM

## C=CC(=O)N1CCC(Nc2ncc3cc(-c4c(Cl)c(OC)cc(OC)c4Cl)ccc3n2)CC1 [Compound 10, 1-(4-((6-(2,6-dichloro-3,5-dimethoxyphenyl)quinazolin-2-yl)amino)piperidin-1-yl)prop-2-en-1-one]
FGFR1
  IC50: < 0.003 µM
FGFR3
  IC50: 0.007 µM
FGFR4
  IC50: 0.177 µM

## CC#CC(=O)N1CCC[C@H](Nc2ncc3cc(-c4c(Cl)c(OC)cc(OC)c4Cl)ccc3n2)C1 [Compound 62]
FGFR1
  IC50: 0.007 µM

## C=CC(=O)N1C[C@@H](Nc2ncc3cc(-c4c(Cl)c(OC)cc(OC)c4Cl)ccc3n2)C[C@H]1C(=O)N(C)C [Compound 30, (2S,4S)-1-acryloyl-4-((6-(2,6-dichloro-3,5-dimethoxyphenyl)quinazolin-2-yl)amino)-N,N-dimethylpyrrolidin-2-carboxamide]
RT112/84
  IC50: 0.117 µM
Hep3B
  IC50: 0.0775 µM
FGFR1
  IC50: 0.009 µM
FGFR4
  IC50: 0.657 µM

## C=CC(=O)N1C[C@@H](Nc2ncc3cc(-c4c(Cl)c(OC)cc(OC)c4Cl)ccc3n2)C[C@H]1CNS(C)(=O)=O [Compound 33, N-(((2S,4S)-1-acryloyl-4-((6-(2,6-dichloro-3,5-dimethoxyphenyl)quinazolin-2-yl)amino)pyrrolidin-2-yl)methyl)methanesulfonamide]
RT112/84
  IC50: 0.065 µM
AN3CA
  IC50: 0.149 µM
Hep3B
  IC50: 0.0754 µM
DMS114
  IC50: 0.034 µM

## C=CC(=O)N1C[C@@H](Nc2ncc3cc(-c4c(Cl)c(OC)cc(OC)c4Cl)ccc3n2)C[C@H]1C [Compound 21, 1-((2R,4S)-4-((6-(2,6-dichloro-3,5-dimethoxyphenyl)quinazolin-2-yl)amino)-2-methylpyrrolidin-1-yl)propyl-2-en-1-one]
RT112/84
  IC50: 0.054 µM
AN3CA
  IC50: 0.176 µM
FGFR1
  IC50: 0.008 µM
FGFR4
  IC50: 0.33 µM

## C=CC(=O)N1C[C@@H](Nc2ncc3cc(-c4c(Cl)c(OC)cc(OC)c4Cl)ccc3n2)C[C@H]1C(=O)NC [Compound 37]
FGFR1
  IC50: 0.0089 µM
FGFR4
  IC50: 0.317 µM

## C=CC(=O)N1C[C@@H](O)[C@H](Nc2ncc3cc(-c4c(Cl)c(OC)cc(OC)c4Cl)ccc3n2)C1 [Compound 39]
FGFR1
  IC50: < 0.003 µM
FGFR4
  IC50: 0.318 µM

## C=CC(=O)N1C[C@H](Nc2ncc3cc(-c4c(Cl)c(OC)cc(OC)c4Cl)ccc3n2)[C@@H](C)C1 [Compound 41]
FGFR1
  IC50: 0.007 µM

## C=CC(=O)N1C[C@@H](CC)[C@H](Nc2ncc3cc(-c4c(Cl)c(OC)cc(OC)c4Cl)ccc3n2)C1 [Compound 48]
FGFR2
  IC50: 0.025 µM
FGFR1
  IC50: 0.017 µM
FGFR3
  IC50: 0.075 µM

## C=CC(=O)N1C[C@@H](Nc2ncc3cc(-c4c(Cl)c(OC)cc(OC)c4Cl)ccc3n2)C[C@H]1C(C)(C)O (stereo in doubt) [Compound 31, 1-((2R,4R)-4-((6-(2,6-dichloro-3,5-dimethoxyphenyl)quinazolin-2-yl)amino)-2-(2-hydroxypropyl-2-yl)pyrrolidin-1-yl)prop-2-en-1-one]
RT112/84
  IC50: 0.07 µM
AN3CA
  IC50: 0.117 µM
Hep3B
  IC50: 0.046 µM
DMS114
  IC50: 0.025 µM
FGFR1
  IC50: 0.0037 µM
FGFR4
  IC50: 0.103 µM

## C=CC(=O)N1C[C@@H]2C[C@H]1[C@@H]2Nc1ncc2cc(-c3c(Cl)c(OC)cc(OC)c3Cl)ccc2n1 (relative stereo) [Compound 11, 1-(trans-5-((6-(2,6-dichloro-3,5-dimethoxyphenyl)quinazolin-2-yl)amino)-2-azabicyclo[2.1.1]hexane-2-yl)prop-2-en-1-one]
FGFR1
  IC50: 0.021 µM
FGFR4
  IC50: 0.198 µM
